Laboratory results taken from ChEMBL document CHEMBL1136454, “Synthesis and biological activity of N-Acylated ornithine analogues of daptomycin” (Bioorg Med Chem Lett, 2003).
Values after ≈ are worked out from the molar mass of the structure shown.

How the values were obtained:
Assay type in all cases: functional
[1] = system: Enterococcus faecium; experiment: Antibacterial activity against Enterococcus faecium ATCC 6569
[2] = system: Staphylococcus aureus; experiment: Antibacterial activity against methicillin susceptible Staphylococcus aureus ATCC 29213 (MSSA )
[3] = system: Enterococcus faecalis; experiment: Antibacterial activity against Enterococcus faecalis ATCC 49452
[4] = system: Staphylococcus aureus; experiment: Antibacterial activity against methicillin resistant Staphylococcus aureus ATCC 43300 (MRSA)
[5] = system: Mus musculus; experiment: Antibacterial activity was determined by protection from death of mice infected by methicillin resistant Staphylococcus aureus (MRSA) upon sc administration of compound after 4 hr of post infection; settings: read-out: PD50

Structure (SMILES) | MIC [1] [µg/mL] | MIC [2] [µg/mL] | MIC [3] [µg/mL] | MIC [4] [µg/mL] | ED50 [5] [mg/kg]
CCCCCCCCCC(=O)N[C@@H](Cc1c[nH]c2ccccc12)C(=O)N[C@@H](CC(N)=O)C(=O)N[C@@H](CC(=O)O)C(=O)N[C@@H]1C(=O)NCC(=O)N[C@@H](CCCNC(=O)C(N)Cc2c[nH]c3ccc(OC)cc23)C(=O)N[C@@H](CC(=O)O)C(=O)N[C@H](C)C(=O)N[C@@H](CC(=O)O)C(=O)NCC(=O)N[C@H](CO)C(=O)N[C@@H]([C@H](C)CC(=O)O)C(=O)N[C@@H](CC(=O)c2ccccc2N)C(=O)O[C@@H]1C (some centres undefined) | 12.5 (≈ 6.8 µM) | 1.56 (≈ 0.849 µM) | 25 (≈ 13.6 µM) | 1.56 (≈ 0.849 µM) | 
CCCCCCCCCC(=O)N[C@@H](Cc1c[nH]c2ccccc12)C(=O)N[C@H](CC(N)=O)C(=O)N[C@@H](CC(=O)O)C(=O)N[C@@H]1C(=O)NCC(=O)N[C@@H](CCCNC(=O)c2cccc(C)c2N)C(=O)N[C@@H](CC(=O)O)C(=O)N[C@H](C)C(=O)N[C@@H](CC(=O)O)C(=O)NCC(=O)N[C@H](CO)C(=O)N[C@@H]([C@H](C)CC(=O)O)C(=O)N[C@@H](CC(=O)c2ccccc2N)C(=O)O[C@@H]1C | 10 (≈ 5.7 µM) | 0.63 (≈ 0.359 µM) | 10 (≈ 5.7 µM) |  | 
CCCCCCCCCC(=O)N[C@@H](Cc1c[nH]c2ccccc12)C(=O)N[C@H](CC(N)=O)C(=O)N[C@@H](CC(=O)O)C(=O)N[C@@H]1C(=O)NCC(=O)N[C@@H](CCCNC(=O)C(N)CCc2c[nH]c3ccccc23)C(=O)N[C@@H](CC(=O)O)C(=O)N[C@H](C)C(=O)N[C@@H](CC(=O)O)C(=O)NCC(=O)N[C@H](CO)C(=O)N[C@@H]([C@H](C)CC(=O)O)C(=O)N[C@@H](CC(=O)c2ccccc2N)C(=O)O[C@@H]1C (some centres undefined) | 1.56 (≈ 0.857 µM) | 0.78 (≈ 0.428 µM) | 3.1 (≈ 1.7 µM) | 0.78 (≈ 0.428 µM) | 0.15
CCCCCCCCCC(=O)N[C@@H](Cc1c[nH]c2ccccc12)C(=O)N[C@H](CC(N)=O)C(=O)N[C@@H](CC(=O)O)C(=O)N[C@@H]1C(=O)NCC(=O)N[C@@H](CCCNC(=O)C(C)CC(=O)c2ccccc2N)C(=O)N[C@@H](CC(=O)O)C(=O)N[C@H](C)C(=O)N[C@@H](CC(=O)O)C(=O)NCC(=O)N[C@H](CO)C(=O)N[C@@H]([C@H](C)CC(=O)O)C(=O)N[C@@H](CC(=O)c2ccccc2N)C(=O)O[C@@H]1C (some centres undefined) | 6.25 (≈ 3.45 µM) | 1.56 (≈ 0.862 µM) | 12.5 (≈ 6.91 µM) | 1.56 (≈ 0.862 µM) | 
CCCCCCCCCC(=O)N[C@@H](Cc1c[nH]c2ccccc12)C(=O)N[C@H](CC(N)=O)C(=O)N[C@@H](CC(=O)O)C(=O)N[C@@H]1C(=O)NCC(=O)N[C@@H](CCCNC(=O)C2Cc3c([nH]c4ccccc34)CN2)C(=O)N[C@@H](CC(=O)O)C(=O)N[C@H](C)C(=O)N[C@@H](CC(=O)O)C(=O)NCC(=O)N[C@H](CO)C(=O)N[C@@H]([C@H](C)CC(=O)O)C(=O)N[C@@H](CC(=O)c2ccccc2N)C(=O)O[C@@H]1C (some centres undefined) | 3.1 (≈ 1.7 µM) | 0.78 (≈ 0.429 µM) | 12.5 (≈ 6.87 µM) | 0.78 (≈ 0.429 µM) | 1.75
CCCCCCCCCC(=O)N[C@@H](Cc1c[nH]c2ccccc12)C(=O)N[C@H](CC(N)=O)C(=O)N[C@@H](CC(=O)O)C(=O)N[C@@H]1C(=O)NCC(=O)N[C@@H](CCCNC(=O)c2cc(C(=O)O)ccc2N)C(=O)N[C@@H](CC(=O)O)C(=O)N[C@H](C)C(=O)N[C@@H](CC(=O)O)C(=O)NCC(=O)N[C@H](CO)C(=O)N[C@@H]([C@H](C)CC(=O)O)C(=O)N[C@@H](CC(=O)c2ccccc2N)C(=O)O[C@@H]1C | 10 (≈ 5.61 µM) | 1.25 (≈ 0.701 µM) | 12.5 (≈ 7.01 µM) | 3.1 (≈ 1.74 µM) | 
CCCCCCCCCC(=O)N[C@@H](Cc1c[nH]c2ccccc12)C(=O)N[C@H](CC(N)=O)C(=O)N[C@@H](CC(=O)O)C(=O)N[C@@H]1C(=O)NCC(=O)N[C@@H](CCCNC(=O)[C@@H](N)CCCCN)C(=O)N[C@@H](CC(=O)O)C(=O)N[C@H](C)C(=O)N[C@@H](CC(=O)O)C(=O)NCC(=O)N[C@H](CO)C(=O)N[C@@H]([C@H](C)CC(=O)O)C(=O)N[C@@H](CC(=O)c2ccccc2N)C(=O)O[C@@H]1C |  | 1.56 (≈ 0.892 µM) | 6.25 (≈ 3.57 µM) | 0.78 (≈ 0.446 µM) | 1.1
CCCCCCCCCC(=O)N[C@@H](Cc1c[nH]c2ccccc12)C(=O)N[C@H](CC(N)=O)C(=O)N[C@@H](CC(=O)O)C(=O)N[C@@H]1C(=O)NCC(=O)N[C@@H](CCCNC(=O)CCc2c[nH]c3ccccc23)C(=O)N[C@@H](CC(=O)O)C(=O)N[C@H](C)C(=O)N[C@@H](CC(=O)O)C(=O)NCC(=O)N[C@H](CO)C(=O)N[C@@H]([C@H](C)CC(=O)O)C(=O)N[C@@H](CC(=O)c2ccccc2N)C(=O)O[C@@H]1C | 12.5 (≈ 6.98 µM) | 1.56 (≈ 0.871 µM) | 25 (≈ 14 µM) | 1.56 (≈ 0.871 µM) | 
CCCCCCCCCC(=O)N[C@@H](Cc1c[nH]c2ccccc12)C(=O)N[C@H](CC(N)=O)C(=O)N[C@@H](CC(=O)O)C(=O)N[C@@H]1C(=O)NCC(=O)N[C@@H](CCCNC(=O)CC(C)(C)C(=O)O)C(=O)N[C@@H](CC(=O)O)C(=O)N[C@H](C)C(=O)N[C@@H](CC(=O)O)C(=O)NCC(=O)N[C@H](CO)C(=O)N[C@@H]([C@H](C)CC(=O)O)C(=O)N[C@@H](CC(=O)c2ccccc2N)C(=O)O[C@@H]1C | 50 (≈ 28.6 µM) | 12.5 (≈ 7.15 µM) | 50 (≈ 28.6 µM) | 12.5 (≈ 7.15 µM) | 
CCCCCCCCCC(=O)N[C@@H](Cc1c[nH]c2ccccc12)C(=O)N[C@@H](CC(N)=O)C(=O)N[C@@H](CC(=O)O)C(=O)N[C@@H]1C(=O)NCC(=O)N[C@@H](CCCNC(=O)C(N)Cc2c[nH]c3ccccc23)C(=O)N[C@@H](CC(=O)O)C(=O)N[C@H](C)C(=O)N[C@@H](CC(=O)O)C(=O)NCC(=O)N[C@H](CO)C(=O)N[C@@H]([C@H](C)CC(=O)O)C(=O)N[C@@H](CC(=O)c2ccccc2N)C(=O)O[C@@H]1C (some centres undefined) | 6.25 (≈ 3.46 µM) | 1.56 (≈ 0.863 µM) | 12.5 (≈ 6.92 µM) | 1.56 (≈ 0.863 µM) | 
CCCCCCCCCC(=O)N[C@@H](Cc1c[nH]c2ccccc12)C(=O)N[C@H](CC(N)=O)C(=O)N[C@@H](CCO)C(=O)N[C@@H]1C(=O)NCC(=O)N[C@@H](CCCNC(=O)c2ccccc2)C(=O)N[C@@H](CC(=O)O)C(=O)N[C@H](C)C(=O)N[C@@H](CC(=O)O)C(=O)NCC(=O)N[C@H](CO)C(=O)N[C@@H]([C@H](C)CC(=O)O)C(=O)N[C@@H](CC(=O)c2ccccc2N)C(=O)O[C@@H]1C | 25 (≈ 14.6 µM) | 6.25 (≈ 3.65 µM) | 25 (≈ 14.6 µM) | 12.5 (≈ 7.31 µM) | 
CCCCCCCCCC(=O)N[C@@H](Cc1c[nH]c2ccccc12)C(=O)N[C@H](CC(N)=O)C(=O)N[C@@H](CC(=O)O)C(=O)N[C@@H]1C(=O)NCC(=O)N[C@@H](CCCNC(=O)c2ccccc2SC)C(=O)N[C@@H](CC(=O)O)C(=O)N[C@H](C)C(=O)N[C@@H](CC(=O)O)C(=O)NCC(=O)N[C@H](CO)C(=O)N[C@@H]([C@H](C)CC(=O)O)C(=O)N[C@@H](CC(=O)c2ccccc2N)C(=O)O[C@@H]1C | 6.25 (≈ 3.53 µM) | 3.1 (≈ 1.75 µM) | 25 (≈ 14.1 µM) | 1.56 (≈ 0.881 µM) | 
CCCCCCCCCC(=O)N[C@@H](Cc1c[nH]c2ccccc12)C(=O)N[C@H](CC(N)=O)C(=O)N[C@@H](CC(=O)O)C(=O)N[C@@H]1C(=O)NCC(=O)N[C@@H](CCCNC(=O)c2cccc(OC)c2N)C(=O)N[C@@H](CC(=O)O)C(=O)N[C@H](C)C(=O)N[C@@H](CC(=O)O)C(=O)NCC(=O)N[C@H](CO)C(=O)N[C@@H]([C@H](C)CC(=O)O)C(=O)N[C@@H](CC(=O)c2ccccc2N)C(=O)O[C@@H]1C | 10 (≈ 5.65 µM) | 0.63 (≈ 0.356 µM) | 10 (≈ 5.65 µM) |  | 
CCCCCCCCCC(=O)N[C@@H](Cc1c[nH]c2ccccc12)C(=O)N[C@H](CC(N)=O)C(=O)N[C@@H](CC(=O)O)C(=O)N[C@@H]1C(=O)NCC(=O)N[C@@H](CCCNC(=O)c2ccccc2I)C(=O)N[C@@H](CC(=O)O)C(=O)N[C@H](C)C(=O)N[C@@H](CC(=O)O)C(=O)NCC(=O)N[C@H](CO)C(=O)N[C@@H]([C@H](C)CC(=O)O)C(=O)N[C@@H](CC(=O)c2ccccc2N)C(=O)O[C@@H]1C | 3.1 (≈ 1.68 µM) | 1.56 (≈ 0.843 µM) | 12.5 (≈ 6.75 µM) | 1.56 (≈ 0.843 µM) | 
CCCCCCCCCC(=O)N[C@@H](Cc1c[nH]c2ccccc12)C(=O)N[C@H](CC(N)=O)C(=O)N[C@@H](CC(=O)O)C(=O)N[C@@H]1C(=O)NCC(=O)N[C@@H](CCCNC(=O)c2cc(OC)ccc2N)C(=O)N[C@@H](CC(=O)O)C(=O)N[C@H](C)C(=O)N[C@@H](CC(=O)O)C(=O)NCC(=O)N[C@H](CO)C(=O)N[C@@H]([C@H](C)CC(=O)O)C(=O)N[C@@H](CC(=O)c2ccccc2N)C(=O)O[C@@H]1C | 10 (≈ 5.65 µM) | 2.5 (≈ 1.41 µM) | 10 (≈ 5.65 µM) |  | 
CCCCCCCCCC(=O)N[C@@H](Cc1c[nH]c2ccccc12)C(=O)N[C@H](CC(N)=O)C(=O)N[C@@H](CCO)C(=O)N[C@@H]1C(=O)NCC(=O)N[C@@H](CCCNC(=O)C(N)Cc2c[nH]c3ccc(F)cc23)C(=O)N[C@@H](CC(=O)O)C(=O)N[C@H](C)C(=O)N[C@@H](CC(=O)O)C(=O)NCC(=O)N[C@H](CO)C(=O)N[C@@H]([C@H](C)CC(=O)O)C(=O)N[C@@H](CC(=O)c2ccccc2N)C(=O)O[C@@H]1C (some centres undefined) | 3.1 (≈ 1.71 µM) | 1.56 (≈ 0.861 µM) | 1.56 (≈ 0.861 µM) | 1.56 (≈ 0.861 µM) | 
CCCCCCCCCC(=O)N[C@@H](Cc1c[nH]c2ccccc12)C(=O)N[C@H](CC(N)=O)C(=O)N[C@@H](CC(=O)O)C(=O)N[C@@H]1C(=O)NCC(=O)N[C@@H](CCCNC(=O)c2cc(O)ccc2N)C(=O)N[C@@H](CC(=O)O)C(=O)N[C@H](C)C(=O)N[C@@H](CC(=O)O)C(=O)NCC(=O)N[C@H](CO)C(=O)N[C@@H]([C@H](C)CC(=O)O)C(=O)N[C@@H](CC(=O)c2ccccc2N)C(=O)O[C@@H]1C | 10 (≈ 5.7 µM) | 1.25 (≈ 0.712 µM) | 10 (≈ 5.7 µM) |  | 
CCCCCCCCCC(=O)N[C@@H](Cc1c[nH]c2ccccc12)C(=O)N[C@H](CC(N)=O)C(=O)N[C@@H](CCO)C(=O)N[C@@H]1C(=O)NCC(=O)N[C@@H](CCCNC(=O)c2c(N)cccc2F)C(=O)N[C@@H](CC(=O)O)C(=O)N[C@H](C)C(=O)N[C@@H](CC(=O)O)C(=O)NCC(=O)N[C@H](CO)C(=O)N[C@@H]([C@H](C)CC(=O)O)C(=O)N[C@@H](CC(=O)c2ccccc2N)C(=O)O[C@@H]1C | 3.1 (≈ 1.78 µM) | 0.78 (≈ 0.447 µM) | 3.1 (≈ 1.78 µM) | 0.78 (≈ 0.447 µM) | 
CCCCCCCCCC(=O)N[C@@H](Cc1c[nH]c2ccccc12)C(=O)N[C@H](CC(N)=O)C(=O)N[C@@H](CC(=O)O)C(=O)N[C@@H]1C(=O)NCC(=O)N[C@@H](CCCNC(=O)c2ccccc2OC)C(=O)N[C@@H](CC(=O)O)C(=O)N[C@H](C)C(=O)N[C@@H](CC(=O)O)C(=O)NCC(=O)N[C@H](CO)C(=O)N[C@@H]([C@H](C)CC(=O)O)C(=O)N[C@@H](CC(=O)c2ccccc2N)C(=O)O[C@@H]1C | 6.25 (≈ 3.56 µM) | 1.25 (≈ 0.712 µM) | 25 (≈ 14.2 µM) | 3.1 (≈ 1.77 µM) | 
